# Reference: patent publication EP0162545A2, “Enhanced bioconversion processes” (BETZ EUROPE, INC., priority 1984, dated 1985)
# System: Klebsiella
# Assay: Total organic carbon removal in nutrient broth shake flasks
# Assay type: cell-based
# Details: for % Org. Carbon Removal / Tot. Inorg. Carbon / Tot. Org. Carbon / Total Carbon: 5 Hours
# Protocol: Experiments to look at the above conclusions in depth were performed. In these experiments, cultures of Klebsiella were challenged with various concentrations of BNS and the effects on C02 evolution from glucose, viability, TOC (Total Organic Carbon), TIC (Total Inorganic Carbon) production, removal, and DO (Dissolved Oxygen) removal were determined. Concentrations of BNS from 0.05 to 100 µg/mL were used. […] CO2 evolution decreased after 5 gg/mL. […] The viability dropped off after that with 99% inhibition at concentrations somewhere between 10 - 20 µg/mL. Organic carbon removal gave the most puzzling pattern. […] CO2 was produced, however, as reflected by the C02 blowoff experiments and the TIC data. The organic carbon being oxidized (removed) must have been cancelled out by an organic carbon addition caused by limited bacterial lysis. This phenomenon was investigated again. […] It appeared that 5 ppm BNS would be the maximum concentration that could be used for the desired effect, with the majority of favorable results occurring in the 0.05 - 2 ppm range.
# The experiments coordinating the measurements of C02 evolution, TOC reduction, viable count, and dissolved oxygen (DO) reduction were performed as follows: C02 evolution by Klebsiella was measured as described previously using a narrowed set of BNS concentrations. At the same time, Klebsiella cells grown overnight in nutrient broth were standardized into an inoculum of 250 Klett units. These cells were used to inoculate 19 mL quantities of fresh nutrient broth (1 mL inoculum) in baffled shake flasks. These shake flasks were placed into water bath shakers at 37°C and allowed to shake for 5 hours. Concentrations of BNS equivalent to the C02 blowoff experiment were added to the flasks at the beginning of the experiment. Controls containing no BNS were included for comparisons. Total organic carbon measurements were taken after 5 hours incubation. Viable counts were done at 1 hour, 3 hours, and 5 hours. A parallel experiment was performed using the same setup except that after BNS additions, the flasks were shaken for 30 minutes and then held stationary. DO measurements were taken at 5 hours incubation with the use of a YSI Model 54A oxygen meter.
smiles,measurement,setting,value
"O=[N+]([O-])C(Br)=Cc1ccccc1 [BNS, beta-bromo-beta-nitrostyrene]",% Org. Carbon Removal,BNS 0.05 µg/mL,37%
same,Tot. Inorg. Carbon,BNS 0.05 µg/mL,145 µg/mL
same,Tot. Org. Carbon,BNS 0.05 µg/mL,"2,205 µg/mL"
same,Total Carbon,BNS 0.05 µg/mL,"2,350 µg/mL"
same,% Org. Carbon Removal,BNS 0.1 µg/mL,+9%
same,Tot. Inorg. Carbon,BNS 0.1 µg/mL,155 µg/mL
same,Tot. Org. Carbon,BNS 0.1 µg/mL,"3,845 µg/mL"
same,Total Carbon,BNS 0.1 µg/mL,"4,000 µg/mL"
same,% Org. Carbon Removal,BNS 0.5 µg/mL,1%
same,Tot. Inorg. Carbon,BNS 0.5 µg/mL,145 µg/mL
same,Tot. Org. Carbon,BNS 0.5 µg/mL,"3,455 µg/mL"
same,Total Carbon,BNS 0.5 µg/mL,"3,600 µg/mL"
same,% Org. Carbon Removal,BNS 1.0 µg/mL,6%
same,Tot. Inorg. Carbon,BNS 1.0 µg/mL,120 µg/mL
same,Tot. Org. Carbon,BNS 1.0 µg/mL,"3,280 µg/mL"
same,Total Carbon,BNS 1.0 µg/mL,"3,400 µg/mL"
same,% Org. Carbon Removal,BNS 2 µg/mL,+16%
same,Tot. Inorg. Carbon,BNS 2 µg/mL,96 µg/mL
same,Tot. Org. Carbon,BNS 2 µg/mL,"4,054 µg/mL"
same,Total Carbon,BNS 2 µg/mL,"4,150 µg/mL"
same,% Org. Carbon Removal,BNS 5 µg/mL,+35%
same,Tot. Inorg. Carbon,BNS 5 µg/mL,63 µg/mL
same,Tot. Org. Carbon,BNS 5 µg/mL,"4,737 µg/mL"
same,Total Carbon,BNS 5 µg/mL,"4,800 µg/mL"
same,% Org. Carbon Removal,BNS 10 µg/mL,+11%
same,Tot. Inorg. Carbon,BNS 10 µg/mL,12 µg/mL
same,Tot. Org. Carbon,BNS 10 µg/mL,"3,888 µg/mL"
same,Total Carbon,BNS 10 µg/mL,"3,900 µg/mL"
same,% Org. Carbon Removal,BNS 20 µg/mL,+19%
same,Tot. Inorg. Carbon,BNS 20 µg/mL,9 µg/mL
same,Tot. Org. Carbon,BNS 20 µg/mL,"4,191 µg/mL"
same,Total Carbon,BNS 20 µg/mL,"4,200 µg/mL"
same,% Org. Carbon Removal,BNS 50 µg/mL,+31%
same,Tot. Inorg. Carbon,BNS 50 µg/mL,7 µg/mL
same,Tot. Org. Carbon,BNS 50 µg/mL,"4,593 µg/mL"
same,Total Carbon,BNS 50 µg/mL,"4,600 µg/mL"
same,% Org. Carbon Removal,BNS 100 µg/mL,+102%
same,Tot. Inorg. Carbon,BNS 100 µg/mL,7 µg/mL
same,Tot. Org. Carbon,BNS 100 µg/mL,"7,093 µg/mL"
same,Total Carbon,BNS 100 µg/mL,"7,100 µg/mL"
same,concentrations resulting in increases in TOC,"nutrient broth, 5 hours",≥ 2 µg/mL
